Assay results: patent US20120252801A1, “ANTIFUNGAL COMPOUNDS” (Katholieke Universiteit Leuven, K.U.Leuven R&D, priority 2009, published 2012)
Converted amounts (≈) assume the structure as drawn.

Key:
C. glabrata = experiment: Minimal fungicidal concentration (MFC) against C. glabrata; format: cell-based, Candida glabrata; conditions: Nakaseomyces glabratus; 24 h at 37° C. in PBS; less than 1% survival relative to DMSO control
Protocol: (§1) Two-fold dilution series of the compounds were prepared in 50% DMSO. 5 μl of these series were added to 95 μl PBS buffer inoculated with 1/500 cells of an overnight culture of either C. albicans, C. glabrata or C. krusei (final DMSO conc 2%). 2% DMSO served as negative control. After 24 h incubation at 37° C. of these cultures with the antifungal compounds in PBS, the cell cultures were plated on YPD agar and colony forming units (CFUs) were determined after incubation of the plates for 2 days. MFC was determined as the minimal concentration of a compound resulting in less than 1% survival of the yeast culture relative to the DMSO control.

Aspergillus flavus = experiment: Minimal inhibitory concentration (MIC) against A. flavus; format: cell-based; conditions: 24 h at 25° C. in ½ PDB, minimal concentration that inhibits growth
Protocol: (§2) To determine the MIC and MFC of a compound against Aspergillus flavus, Fusarium oxysporum or F. culmorum, a 2-fold dilution series of the compounds of the invention was incubated with the corresponding spore suspension in ½ PDB (potato dextrose broth, Difco) (2×10^4 spores/ml). […] MFC was determined as the minimal concentration of a compound resulting in less than 1% survival of the fungal culture relative to the DMSO control.

A. fumigatus = experiment: Minimal inhibitory concentration (MIC) against A. fumigatus; format: cell-based; conditions: Aspergillus fumigatus; minimal concentration that inhibits growth
C. albicans SC5314 = experiment: Minimal fungicidal concentration (MFC) against C. albicans; format: cell-based; conditions: Candida albicans, 24 h at 37° C. in PBS, less than 1% survival relative to DMSO control
Protocol: as §1

Fusarium oxysporum = experiment: Minimal inhibitory concentration (MIC) against F. oxysporum; format: cell-based; conditions: 24 h at 25° C. in ½ PDB, minimal concentration that inhibits growth
Protocol: as §2

| SMILES | MFC (C. glabrata) | MIC (Aspergillus flavus) | MIC (A. fumigatus) | MFC (C. albicans SC5314) | MIC (Fusarium oxysporum) |
| --- | --- | --- | --- | --- | --- |
| CCN1CC(C)(C)OC(=O)C1CC(=O)NCc1ccccc1 (centres unmarked) [CPD-12, N-benzyl-2-(4-ethyl-6,6-dimethyl-2-oxomorpholin-3-yl)acetamide] | 25 µg/mL (≈ 82.1 µM) | 50 µg/mL (≈ 164 µM) | 12.5 µg/mL (≈ 41.1 µM) | 12.5 µg/mL (≈ 41.1 µM) | > 50 µg/mL |
| CCN1CC(C)(C)OC(=O)C1CC(=O)Nc1ccc2scnc2c1 (centres unmarked) [CPD-10, N-(benzo[d]thiazol-5-yl)-2-(4-ethyl-6,6-dimethyl-2-oxomorpholin-3-yl)acetamide] | > 50 µg/mL | > 50 µg/mL | 12.5 µg/mL (≈ 36 µM) | > 50 µg/mL | > 50 µg/mL |
| CCN1CC(C)(C)OC(=O)C1CC(=O)NCc1ccco1 (centres unmarked) [CPD-23, 2-(4-ethyl-6,6-dimethyl-2-oxomorpholin-3-yl)-N-(furan-2-ylmethyl)acetamide] | > 50 µg/mL | 50 µg/mL (≈ 170 µM) | 25 µg/mL (≈ 84.9 µM) | 50 µg/mL (≈ 170 µM) | 50 µg/mL (≈ 170 µM) |
| CCN1CC(C)(C)OC(=O)C1CC(=O)NCC(F)(F)F (centres unmarked) [CPD-39, 2-(4-ethyl-6,6-dimethyl-2-oxomorpholin-3-yl)-N-(2,2,2-trifluoroethyl)acetamide] | > 50 µg/mL | > 50 µg/mL | 25 µg/mL (≈ 84.4 µM) | 50 µg/mL (≈ 169 µM) | > 50 µg/mL |
| CCN1CC(C)(C)OC(=O)C1CC(=O)NC1CCc2ccccc21 (centres unmarked) [CPD-09, N-(2,3-dihydro-1H-inden-1-yl)-2-(4-ethyl-6,6-dimethyl-2-oxomorpholin-3-yl)acetamide] | 50 µg/mL (≈ 151 µM) | > 50 µg/mL | 50 µg/mL (≈ 151 µM) | 25 µg/mL (≈ 75.7 µM) | > 50 µg/mL |
| CCN1C[C@@H](C)OC(=O)C1CC(=O)Nc1ccc(C(C)C)cc1 (stereo partly drawn) [CPD-05, 2-((6R)-4-ethyl-6-methyl-2-oxomorpholin-3-yl)-N-(4-isopropylphenyl)acetamide] | 6.25 µg/mL (≈ 19.6 µM) | 6.25 µg/mL (≈ 19.6 µM) | 0.8 µg/mL (≈ 2.51 µM) | 12.5 µg/mL (≈ 39.3 µM) |  |
| CCN1C[C@H](C)OC(=O)C1CC(=O)Nc1ccc(C(C)C)cc1 (stereo partly drawn) [CPD-03, 2-((6S)-4-ethyl-6-methyl-2-oxomorpholin-3-yl)-N-(4-isopropylphenyl)acetamide] | 6.25 µg/mL (≈ 19.6 µM) | 6.25 µg/mL (≈ 19.6 µM) | 0.8 µg/mL (≈ 2.51 µM) | 12.5 µg/mL (≈ 39.3 µM) |  |
| CCN1CC(C)(C)OC(=O)C1CC(=O)NCc1ccccc1C (centres unmarked) [CPD-69, 2-(4-ethyl-6,6-dimethyl-2-oxomorpholin-3-yl)-N-(2-methylbenzyl)acetamide] |  |  |  | 25 µg/mL (≈ 78.5 µM) |  |
| CCN1CC(C)(C)OC(=O)C1CC(=O)NCc1ccccc1-c1ccccc1 (centres unmarked) [CPD-81, N-(biphenyl-2-ylmethyl)-2-(4-ethyl-6,6-dimethyl-2-oxomorpholin-3-yl)acetamide] | 12.5 µg/mL (≈ 32.9 µM) | 25 µg/mL (≈ 65.7 µM) | 3.12 µg/mL (≈ 8.21 µM) | 12.5 µg/mL (≈ 32.9 µM) | 25 µg/mL (≈ 65.7 µM) |
| CCN1CC(C)(C)OC(=O)C1CC(=O)NCc1ccccc1OC (centres unmarked) [CPD-79, 2-(4-ethyl-6,6-dimethyl-2-oxomorpholin-3-yl)-N-(2-methoxybenzyl)acetamide] | 25 µg/mL (≈ 74.8 µM) | > 25 µg/mL | 12.5 µg/mL (≈ 37.4 µM) | > 25 µg/mL | > 25 µg/mL |
| CC(C)c1ccc(NC(=O)CC2C(=O)OC(C)(C)CN2S(C)(=O)=O)cc1 (centres unmarked) [CPD-75, 2-(6,6-dimethyl-4-(methylsulfonyl)-2-oxomorpholin-3-yl)-N-(4-isopropylphenyl)acetamide] | > 25 µg/mL | > 25 µg/mL | 12.5 µg/mL (≈ 32.7 µM) | > 25 µg/mL | > 25 µg/mL |
| CCN1CC(C)(C)OC(=O)C1CC(=O)NCc1cccc(C(F)(F)F)c1 (centres unmarked) [CPD-78, 2-(4-ethyl-6,6-dimethyl-2-oxomorpholin-3-yl)-N-(3-(trifluoromethyl)benzyl)acetamide] | 12.5 µg/mL (≈ 33.6 µM) | > 25 µg/mL | 6.25 µg/mL (≈ 16.8 µM) | 25 µg/mL (≈ 67.1 µM) | > 25 µg/mL |
| CCN1CC(C)(C)OC(=O)C1CC(=O)NCc1ccc(C(F)(F)F)cc1 (centres unmarked) [CPD-71, 2-(4-ethyl-6,6-dimethyl-2-oxomorpholin-3-yl)-N-(4-(trifluoromethyl)benzyl)acetamide] |  |  |  | 25 µg/mL (≈ 67.1 µM) |  |
| CCN1CC(C)(C)OC(=O)C1CC(=O)NCc1cccc(OC)c1 (centres unmarked) [CPD-80, 2-(4-ethyl-6,6-dimethyl-2-oxomorpholin-3-yl)-N-(3-methoxybenzyl)acetamide] | 12.5 µg/mL (≈ 37.4 µM) | > 25 µg/mL | 6.25 µg/mL (≈ 18.7 µM) | 25 µg/mL (≈ 74.8 µM) | > 25 µg/mL |
| CCN1CC(C)(C)OC(=O)C1CC(=O)NCc1ccc(Cl)c(Cl)c1 (centres unmarked) [CPD-50, N-(3,4-dichlorobenzyl)-2-(4-ethyl-6,6-dimethyl-2-oxomorpholin-3-yl)acetamide] | 3.12 µg/mL (≈ 8.36 µM) | 6.25 µg/mL (≈ 16.7 µM) | 1.6 µg/mL (≈ 4.29 µM) | 12.5 µg/mL (≈ 33.5 µM) | 25 µg/mL (≈ 67 µM) |
| CCN1CC(C)(C)OC(=O)C1CC(=O)NCc1ccc(-c2ccccc2)cc1 (centres unmarked) [CPD-73, N-(biphenyl-4-ylmethyl)-2-(4-ethyl-6,6-dimethyl-2-oxomorpholin-3-yl)acetamide] |  |  |  | 25 µg/mL (≈ 65.7 µM) |  |
| CCN1CC(C)(C)OC(=O)C1CC(=O)NCc1ccccc1C(F)(F)F (centres unmarked) [CPD-77, 2-(4-ethyl-6,6-dimethyl-2-oxomorpholin-3-yl)-N-(2-(trifluoromethyl)benzyl)acetamide] | 12.5 µg/mL (≈ 33.6 µM) | 25 µg/mL (≈ 67.1 µM) | 3.12 µg/mL (≈ 8.39 µM) | 25 µg/mL (≈ 67.1 µM) | 25 µg/mL (≈ 67.1 µM) |
| CCN1CC(c2ccccc2)OC(=O)C1CC(=O)Nc1ccc(C(C)C)cc1 (centres unmarked) [CPD-01, 2-(4-ethyl-2-oxo-6-phenylmorpholin-3-yl)-N-(4-isopropylphenyl)acetamide] | 12.5 µg/mL (≈ 32.9 µM) | 12.5 µg/mL (≈ 32.9 µM) | 0.8 µg/mL (≈ 2.1 µM) | 12.5 µg/mL (≈ 32.9 µM) |  |
| CCN1CC(C)(C)OC(=O)C1CC(=O)NC1CCN(Cc2ccccc2)CC1 (centres unmarked) [CPD-14, N-(1-benzylpiperidin-4-yl)-2-(4-ethyl-6,6-dimethyl-2-oxomorpholin-3-yl)acetamide] | > 50 µg/mL | > 50 µg/mL | > 50 µg/mL | 25 µg/mL (≈ 64.5 µM) | > 50 µg/mL |
| CCN1CC(C)(C)OC(=O)C1CC(=O)NCc1ccc(OC)cc1 (centres unmarked) [CPD-72, 2-(4-ethyl-6,6-dimethyl-2-oxomorpholin-3-yl)-N-(4-methoxybenzyl)acetamide] |  |  |  | 25 µg/mL (≈ 74.8 µM) |  |
| CCN1CC(C)(C)OC(=O)C1CC(=O)NCc1ccc(C)cc1 (centres unmarked) [CPD-76, 2-(4-ethyl-6,6-dimethyl-2-oxomorpholin-3-yl)-N-(4-methylbenzyl)acetamide] | 6.25 µg/mL (≈ 19.6 µM) | 25 µg/mL (≈ 78.5 µM) | 3.12 µg/mL (≈ 9.81 µM) | 25 µg/mL (≈ 78.5 µM) | > 25 µg/mL |
| CCN1CC(C)(C)OC(=O)C1CC(=O)NCCc1ccccc1 (centres unmarked) [CPD-18, 2-(4-ethyl-6,6-dimethyl-2-oxomorpholin-3-yl)-N-phenethylacetamide] | 50 µg/mL (≈ 157 µM) | 25 µg/mL (≈ 78.5 µM) | 6.25 µg/mL (≈ 19.6 µM) | 25 µg/mL (≈ 78.5 µM) | > 50 µg/mL |
| CCN1CC(C)(C)OC(=O)C1CC(=O)NCc1ccccc1Cl (centres unmarked) [CPD-57, N-(2-chlorobenzyl)-2-(4-ethyl-6,6-dimethyl-2-oxomorpholin-3-yl)acetamide] |  |  |  | 25 µg/mL (≈ 73.8 µM) |  |
| CCN1CC(C)(C)OC(=O)C1CC(=O)NCc1cccc(C)c1 (centres unmarked) [CPD-70, 2-(4-ethyl-6,6-dimethyl-2-oxomorpholin-3-yl)-N-(3-methylbenzyl)acetamide] |  |  |  | 25 µg/mL (≈ 78.5 µM) |  |
| CCN1C[C@H](c2ccccc2)OC(=O)C1CC(=O)Nc1ccc(C(C)C)cc1 (stereo partly drawn) [CPD-02, 2-((6S)-4-ethyl-2-oxo-6-phenylmorpholin-3-yl)-N-(4-isopropylphenyl)acetamide] | 12.5 µg/mL (≈ 32.9 µM) | 6.25 µg/mL (≈ 16.4 µM) | 0.8 µg/mL (≈ 2.1 µM) | 12.5 µg/mL (≈ 32.9 µM) |  |
| CCN1C[C@@H](c2ccccc2)OC(=O)C1CC(=O)Nc1ccc(C(C)C)cc1 (stereo partly drawn) [CPD-04, 2-((6R)-4-ethyl-2-oxo-6-phenylmorpholin-3-yl)-N-(4-isopropylphenyl)acetamide] | 6.25 µg/mL (≈ 16.4 µM) | 12.5 µg/mL (≈ 32.9 µM) | 0.8 µg/mL (≈ 2.1 µM) | 12.5 µg/mL (≈ 32.9 µM) |  |
